Test results as given in PubChem BioAssay AID1963869 (Molecular Pharmacology Branch, DTP, NCI, 2024).

Tested on: KRAS patient-derived spheroids with HUVEC/MSC, viability
Assay: Anticancer human tumor 323965-272-R-J2-PDC patient-derived pancreatic carcinoma cell line growth inhibition [KRAS2]
Conditions: for IC50: curve of first compound; for viability, T/C: stronger effect = lower value
How it was run: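 Combination screen of spheroid viability in tumor-cell co-cultures with endothelial (HUVEC) and mesenchymal stem cell stroma. Each agent was tested in half-log dilutions, topping at clinical Cmax or at 10 microM without a known Cmax.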

[1] = second compound 0.1 µM, first compound 0.0316 µM
[2] = second compound 0.1 µM, first compound 0.1 µM
[3] = second compound 0.1 µM, first compound 0.316 µM
[4] = second compound 0.1 µM, first compound 1 µM
[5] = second compound 0.1 µM, first compound 3.16 µM
[6] = second compound 0.1 µM, first compound 10 µM
[7] = second compound 0.316 µM, first compound 0.0316 µM
[8] = second compound 0.316 µM, first compound 0.1 µM
[9] = second compound 0.316 µM, first compound 0.316 µM
[10] = second compound 0.316 µM, first compound 1 µM
[11] = second compound 0.316 µM, first compound 3.16 µM
[12] = second compound 0.316 µM, first compound 10 µM
[13] = second compound 1 µM, first compound 0.0316 µM
[14] = second compound 1 µM, first compound 0.1 µM
[15] = second compound 1 µM, first compound 0.316 µM
[16] = second compound 1 µM, first compound 1 µM
[17] = second compound 1 µM, first compound 3.16 µM
[18] = second compound 1 µM, first compound 10 µM
[19] = second compound 3.16 µM, first compound 0.0316 µM
[20] = second compound 3.16 µM, first compound 0.1 µM
[21] = second compound 3.16 µM, first compound 0.316 µM
[22] = second compound 3.16 µM, first compound 1 µM
[23] = second compound 3.16 µM, first compound 3.16 µM
[24] = second compound 3.16 µM, first compound 10 µM
[25] = second compound 10 µM, first compound 0.0316 µM
[26] = second compound 10 µM, first compound 0.1 µM
[27] = second compound 10 µM, first compound 0.316 µM
[28] = second compound 10 µM, first compound 1 µM
[29] = second compound 10 µM, first compound 3.16 µM
[30] = second compound 10 µM, first compound 10 µM
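Also: spheroids exposed to agents for 7 days.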
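For viability, T/C in this document: 100% = DMSO vehicle control viability.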

Row | SMILES | IC50 (second compound 0.1 µM) [nM] | IC50 (second compound 0.316 µM) [nM] | IC50 (second compound 1 µM) [nM] | IC50 (second compound 3.16 µM) [nM] | IC50 (second compound 10 µM) [nM] | viability, T/C [1] [%] | viability, T/C [2] [%] | viability, T/C [3] [%] | viability, T/C [4] [%] | viability, T/C [5] [%] | viability, T/C [6] [%] | viability, T/C [7] [%] | viability, T/C [8] [%] | viability, T/C [9] [%] | viability, T/C [10] [%] | viability, T/C [11] [%] | viability, T/C [12] [%] | viability, T/C [13] [%] | viability, T/C [14] [%] | viability, T/C [15] [%] | further results
1 | COc1cc(Nc2ncc3c(n2)-c2ccc(Cl)cc2C(c2c(F)cccc2OC)=NC3)ccc1C(=O)O + CC1OCC2(CCN(c3cnc(Sc4ccnc(N)c4Cl)c(N)n3)CC2)C1N | 89.9 | < 31.6 | < 31.6 | < 31.6 | < 31.6 | 79.5 | 47.3 | 33.8 | 44.3 | 50.6 | 56.2 | 57.2 | 39.9 | 30.8 | 32.6 | 39.1 | 43.8 | 44.9 | 26.6 | 23.4 | viability, T/C [16]: 26.6%; viability, T/C [17]: 30.4%; viability, T/C [18]: 33.7%; viability, T/C [19]: 37.2%; viability, T/C [20]: 22.2%; viability, T/C [21]: 17.7%; viability, T/C [22]: 23%; viability, T/C [23]: 24.1%; viability, T/C [24]: 28.3%; viability, T/C [25]: 29.9%; viability, T/C [26]: 19.3%; viability, T/C [27]: 17.4%; viability, T/C [28]: 20.3%; viability, T/C [29]: 20.9%; viability, T/C [30]: 23.3%
2 | COc1cc2nccc(Oc3ccc(NC(=O)C4(C(=O)Nc5ccc(F)cc5)CC4)cc3)c2cc1OC + CC1OCC2(CCN(c3cnc(Sc4ccnc(N)c4Cl)c(N)n3)CC2)C1N | > 10000 | > 10000 | < 31.6 | < 31.6 | < 31.6 | 80.4 | 80.5 | 74.9 | 87.4 | 79.8 | 73.5 | 58.7 | 65.4 | 65.5 | 64.6 | 71.9 | 63 | 46.9 | 42.4 | 46.9 | viability, T/C [16]: 58.4%; viability, T/C [17]: 52.8%; viability, T/C [18]: 45.4%; viability, T/C [19]: 35.1%; viability, T/C [20]: 36.1%; viability, T/C [21]: 36.3%; viability, T/C [22]: 35.5%; viability, T/C [23]: 35.2%; viability, T/C [24]: 29.8%; viability, T/C [25]: 27.4%; viability, T/C [26]: 28.8%; viability, T/C [27]: 26.8%; viability, T/C [28]: 30.3%; viability, T/C [29]: 33.5%; viability, T/C [30]: 27.3%
